Results published in patent US9573926B2, “Amidoalkylenyl and amidoaryl esters, compositions thereof, and methods for their use” (Allergan, Inc., priority 2014, dated 2017).

Experiment: Aqueous stability of formulated compound (% remaining over time)
Format: physicochemical
Settings: 0.0005% w/v (5 ppm) in pH 6 buffer contain 1% PS80, n = 1

| % Remaining (25° C., 14 days) | % Remaining (25° C., 28 days) | % Remaining (40° C., 14 days) | % Remaining (40° C., 28 days) | % Remaining (60° C., 14 days) | % Remaining (60° C., 28 days) | SMILES |
| --- | --- | --- | --- | --- | --- | --- |
| 99.3% | 99.6% | 99.1% | 99.5% | 98.6% | 97.0% | CC(=O)NCCOC(=O)c1ccc(CCC[C@@H]2[C@@H](CCc3cc(Cl)cc(Cl)c3)[C@H](O)C[C@H]2Cl)s1 [Compound 2, 2-Acetamidoethyl 5-(3-((1R,2R,3R,5R)-5-chloro-2-(3,5-dichlorophenethyl)-3-hydroxycyclopentyl)propyl)thiophene-2-carboxylate] |
| 99.2% | 103.5% | 99.8% | 100.5% | 99.4% | 98.6% | CC(=O)NCCCOC(=O)c1ccc(CCC[C@@H]2[C@@H](CCc3cc(Cl)cc(Cl)c3)[C@H](O)C[C@H]2Cl)s1 [Compound 3, 3-Acetamidopropyl 5-(3-((1R,2R,3R,5R)-5-chloro-2-(3,5-dichlorophenethyl)-3-hydroxycyclopentyl)propyl)thiophene-2-carboxylate] |
